Results published in patent US20240392241A1, “METHOD FOR PRODUCING CELL MASS INCLUDING PITUITARY TISSUE AND CELL MASS” (SUMITOMO CHEMICAL COMPANY, LIMITED, priority 2021, published 2024).

Experiments:
[1] = system: human iPS cells (HC-6 #10 strain); assay: Pituitary organoid differentiation from human iPS cells, phase contrast observation of cell mass (Example 1); type: cell-based; settings: JNK—IN-8 1 μM from day 0
Procedure: Human iPS cells (HC-6 #10 strain, obtained from RIKEN) were cultured under feeder-free conditions according to the method described in Scientific Reports, 4, 3594 (2014). As the feeder-free medium, StemFit medium (manufactured by Ajinomoto Co., Inc.) was used and, as the feeder-free scaffold, Laminin 511-E8 (manufactured by Nippi, Inc.) was used.
As specific maintenance culturing operation, subconfluent human iPS cells (HC-6 #10 strain) were first washed twice with 0.5 mM EDTA/PBS and further treated with 5 mM EDTA/PBS at 37° C. for 10 min. After pipetting, the cells were scraped from the surface of the culture dish and dispersed into single cells. Thereafter, the human iPS cells dispersed into single cells were seeded in a plastic culture dish coated with Laminin 511-E8, and cultured under feeder-free conditions in StemFit medium in the presence of Y-27632 (ROCK inhibiting substance, manufactured by FUJIFILM Wako Pure Chemical Corporation, 10 μM). When a 6-well plate (manufactured by Corning, for cell culturing, culture area 9.5 cm^2) was used as the plastic culture dish, the number of plated cells of the human iPS cells dispersed into single cells was adjusted to 7×10^3. One day after seeding, the entire amount of the medium was changed with StemFit medium free of Y-27632. Thereafter, once in 1-2 days, the entire amount of the medium was changed with StemFit medium free of Y-27632. […]

[2] = system: human iPS cells (1231A3 strain); assay: Timing of JNK inhibitor addition in pituitary organoid differentiation, bright field observation (Example 2); type: cell-based; settings: observed day 28
Procedure: In Example 2, according to step shown in FIG. 2A, a cell population including cells that constitute pituitary tissue was produced. Specifically, human iPS cells (1231A3 strain, obtained from RIKEN) were cultured under feeder-free conditions according to the method described in Scientific Reports, 4, 3594 (2014). As the feeder-free medium, StemFit medium was used and, as the feeder-free scaffold, Laminin 511-E8 was used.
Differentiation induction was performed under the same conditions as in Example 1 except for the condition of adding a JNK inhibitor, compared to the conditions of Example 1. As the condition for adding JNK inhibitor, conditions including addition of JNK—IN-8 (manufactured by Merck, 1 μM), which is a c-Jun N-terminal kinase (JNK) inhibitor, on days 0, 2, 6, 10, and 13 after the start of differentiation induction were compared with conditions without addition of JNK inhibitor. When the JNK inhibitor is added on days 2, 6, 10, and 13 after the start of differentiation induction, 2 μM was added to the medium when adding or replacing the medium, so that the final concentration in the well would be 1 μM.
On day 28 after the start of suspension culture, bright field observation by polarized illumination was performed using an inverted microscope (manufactured by KEYENCE CORPORATION, BIOREVO BZ-X800) (FIG. 2B).

Cc1cc(NC(=O)c2cccc(NC(=O)/C=C/CN(C)C)c2)ccc1Nc1nccc(-c2cccnc2)n1 [JNK—IN-8, (E)-3-(4-(dimethylamino)but-2-enamido)-N-(3-methyl-4-((4-(pyridin-3-yl)pyrimidin-2-yl)amino)phenyl)benzamide]
differentiation efficiency (surface covered with nonneural epithelial/placode-like tissue, unintended cells suppressed) ([1]; day 28, vs no addition): improved
size of the cell mass, smaller in diameter than without addition of JNK inhibitor ([1]; day 28 of suspension culture): about 100 μm
formation of nonneural epithelium/pituitary vs no addition ([2]; JNK—IN-8 1 μM added on days 0, 2, and 6 after start of differentiation induction): formed more efficiently
formation of nonneural epithelium/pituitary vs no addition ([2]; JNK—IN-8 1 μM added on days 10 and 13 after start of differentiation): no difference
